From patent publication EP3050886A1, “Fluorescent dyes and dye precursors” (Bürkert Werke GmbH, priority 2015, dated 2016)
“Also recorded” adds a separate entry of the source.

Assays:
[1] = Absorption spectra / extinction coefficients; type: physicochemical; details: pro-fluorophores, PBS buffer containing 0.6 % glutaraldehyde at pH 7
Method: Absorption spectra were recorded in a 1-cm path length cuvette (Hellma, 104.002B-QS) on a SPECORD®-205 spectrometer from Analytik Jena.
The Extinction coefficients of the flourophores fluorescein, 5-carboxyfluorescein (5-CF), 5-carboxy Oregon Green™ (5-COG), 5-amido N-propyl Oregon Green (5-POG; Example 2) and 5-amido N-propyl fluorescein (5-PFA; Example 3) were measured in 0.1 M NaOH solution at pH 12.7.
The extinction coefficients of the pro-fluorophores 5-thiourea N-propyl fluorescein diacetate (5-PFDAT; Example 5), 5-propyl carboxylate fluorescein diacetate (5-PFDAE; Example 8), 5-amido N-propyl fluorescein diacetate (5-PFDA; Example 7), 5-carboxy Oregon Green diacetate (5-COGDA; Example 9), 5-amido N-propyl Oregon Green diacetate (5-POGDA; Example 6) and 5-amido N-propyl Oregon Green acetoxymethylester (5-POGAM; Example 10) were measured in PBS buffer containing 0.6 % glutaraldehyde at pH 7.

E. coli (ATCC 8739) [2] = test: Labeling of viable E. coli, fluorescence intensity by spectrofluorometer; type: cell-based, Escherichia coli; details: for E. coli staining at 40 µM compared with 5-CFDA or 5-PFDA / concentration range resulting in a saturation process / concentration up to which an increase of viable E. coli fluorescence intensity is obtained: data not shown; for viable E. coli fluorescence intensity relative to 5-CFDA staining: 10 - 15 µM, 30 min at 37 °C, excitation 488 nm, emission 517 nm, Figure 5
Method: (§1) For the staining tests, E. coli (ATCC 8739 or EC18), E. cloacae, C. indologenes, P. aeruginosa and B. subtilis were cultivated in Luria-Bertani (LB) broth until exponential phase at 37°C with shaking at 300 rpm revolutions per minutes (rpm). Bacteria were harvested and washed in sterile phosphate buffer saline solution (PBS) at pH […] by centrifugation at 10000 rpm for 3 min at room temperature (21 ± 2 °C). Then the bacteria were resuspended in PBS at a concentration of 1·10^9 bacteria/ml. Bacteria concentration was calculated according to the turbidity measure at 660 nm (A660nm=1 correspond to bacterial suspension at ∼ 5·10^8 bacteria/ ml).
(§2) Dead bacterial suspensions at 1·10^9 bacteria/ml (negative controls) of these five species of bacteria were prepared individually by addition of 20 µl of bleach containing 2.6 % active chlorine. Bacteria were treated with bleach solution for 15 min. Dead bacteria were washed twice in sterile PBS by centrifugation at 10000 rpm for 3 min at room temperature. The culturability of the negative controls was assessed by plating 100 µl of bacterial suspension onto LB agar or Caso agar and incubating the plates at 37 °C for 72 h.
[…] Bacteria were incubated at 37 °C for 10 - 60 min with pro-fluorophore in darkness. After bacterial staining, they were washed and resuspended in 100 µl of PBS as described above.
(§3) Staining of the bacterial suspension was observed under a fluorescent microscope. These bacteria were imaged with a Leica DM5500 microscope equipped with FITC filter. […] Images were collected with a 100x objective. Fluorescence intensity of stained bacterial suspension was also measured with FluoroLog®-3 (Horiba Jobin Yvon) spectrofluorometer equipped with sample stirring. Samples were placed in fluorescence grade quartz cuvette having a volume of 1 ml. The excitation wavelength used was 488 nm and emission wavelength used was 517 nm. The same experiment was repeated three times (n = 3).
Viable or dead E. coli (ATCC 8739) were incubated with different pro-fluorophores (10 - 15 µM) for 30 min at 37 °C. After washes, fluorescence of the E. coli suspension was measured with a FluoroLog®-3 spectrofluorometer (excitation wavelength: 488 nm, emission wavelength: 517 nm). Relative rates of viable E. coli fluorescence intensity were calculated by normalizing the difference of viable E. coli fluorescence intensity and dead E. coli fluorescence intensity with 5-CFDA staining.
Viable E. coli (ATCC 8739) were incubated with different pro-fluorophores (15 µM) at 37 °C for 10 - 60 min. After washes, E. coli fluorescence suspension was measured with FluoroLog®-3 spectrofluorometer (excitation wavelength: 488 nm, emission wavelength: 517 nm).

E. coli (ATCC 8739) [3] = test: Labeling of viable or dead E. coli, fluorescence microscopy; type: cell-based, Escherichia coli; details: 15 µM, 30 min at 37 °C, Figure 4
Method: Escherichia coli (E. coli) (ATCC 8739) and Bacillus subtilis (B. subtilis) (ATCC 6633) strains were routinely grown in Luria Bertani (LB) broth or on LB agar plates for 18h at 37 °C. Waterborne environmental bacteria such as Enterobacter cloacae (E. cloacae), Chryseobacterium indologenes (C. indologenes), Pseudomonas aeruginosa (P. aeruginosa), and E. coli (EC18) were purchased from Eurofins™. Environmental bacteria were grown in LB broth or on casein-peptone soymeal-peptone agar plates for 18h at 37 °C.
as §1, §2
Bacteria (100 µl suspension at 1·10^9 bacteria/ml) were stained with 10 µM or 15 µM of pro-fluorophore (5-CFDA, 5-PFDAE, 5-PFDAT, 5-PFDA, 5-COGDA, 5-POGDA or 5-POGAM) in 200 µl of PBS solution containing 0.6 % of glutaraldehyde. Bacteria were incubated at 37 °C for 10 - 60 min with pro-fluorophore in darkness. After bacterial staining, they were washed and resuspended in 100 µl of PBS as described above.
as §3
The pro-fluorophores according to the present invention are preferably used to label E. coli cells. Viable or dead E. coli (ATCC 8739) are incubated with these fluorophores and commercial 5-CFDA as described above. […] Glutaraldehyde is added to the incubation solutions to improve the retention of the fluorophores in bacteria.
Bacteria were washed before being imaged with a Leica DM5500 microscope, 100x objective. Scale bars indicate 10 µm.

| SMILES | E (extinction coefficient) [1] [M⁻¹ cm⁻¹] | λAbs max [1] [nm] | E. coli staining at 40 µM compared with 5-CFDA or 5-PFDA (E. coli (ATCC 8739) [2]) | viable E. coli fluorescence intensity relative to 5-CFDA staining (E. coli (ATCC 8739) [2]) | concentration range resulting in a saturation process (E. coli (ATCC 8739) [2]) [µM] | concentration up to which an increase of viable E. coli fluorescence intensity is obtained (E. coli (ATCC 8739) [2]) | staining of viable E. coli (microscopy) (E. coli (ATCC 8739) [3]) |
| --- | --- | --- | --- | --- | --- | --- | --- |
| CCCNC(=O)c1ccc2c(c1)C(=O)OC21c2cc(F)c(OCOC(C)=O)cc2Oc2cc(OCOC(C)=O)c(F)cc21 [Example 5-POGAM, 2',7'-difluoro-3-oxo-5-(propylcarbamoyl)-3H-spiroisobenzofuran-1,9'-xanthene-3',6'-diyl diacetoxymethyl ether] | 11165 ± 334 | 302 | stronger E. coli staining than 5-CFDA or 5-PFDA | between two and three times higher; also recorded: three times brighter | 20 to 40 | about 15 µM | specifically stained with high fluorescence intensity |
| CCCNC(=O)c1ccc2c(c1)C(=O)OC21c2cc(F)c(OC(C)=O)cc2Oc2cc(OC(C)=O)c(F)cc21 [Example 5-POGDA, 2',7'-difluoro-3-oxo-5-(propylcarbamoyl)-3H-spiro[isobenzofuran-1,9'-xanthene]-3',6'-diyl diacetate] | 9784 ± 351 | 303 | stronger E. coli staining than 5-CFDA or 5-PFDA | approximately 6 | 20 to 40 | about 15 µM | specifically stained with high fluorescence intensity |
